biological target: Human DGAT2 (Homo sapiens (Human), UniProt Q96PD7); assay: DGAT2 Enzymatic Activity Assay (triolein formation, LC/MS/MS); format: biochemical; settings: hDGAT2 Sf-9 membrane prep; 25 μM diolein, 10 μM oleoyl-CoA; room temperature
Method: Sf-9 insect cells were maintained in Grace's insect cell culture medium with 10% heated-inactivated fetal bovine serum, 1% Pluronic F-68 and 0.14 μg/m Kanamycine sulfate in Erlenmeyer flasks at 28° C. in a shaker incubator. After infection with untagged hDGAT2 baculovirus at multiplicity of infection (MOI) 0.1 for 48 hours, cells were harvested. Cell pellets were suspended in buffer containing 10 mM Tris-HC (pH 7.5), 1 mM EDTA (pH 8.0), 250 mM sucrose and Complete Protease Inhibitor Cocktail (Roche Diagnostics Corp., Indianapolis, Ill.), and sonicated on ice. Membrane fractions were isolated by ultracentrifugation (100,000×g pellet), resuspended in the same buffer, and frozen (−80° C.) for later use. The protein concentration was determined with the BCA Protein Assay kit (Pierce Biotechnology Inc., Rockford, Ill.). Expression of protein levels was analyzed by immunoblotting with goat polyclonal DGAT2 antibody C-15 and donkey anti-goat IgG HRP (Santa Cruz Biotechnology, Inc., Santa Cruz, Calif.) followed by detection with ECL reagent (GE Healthcare, Piscataway, N.J.).
LC/MS/MS analyses were performed using Thermal Fisher's LX4-TSQ Vantage system. This system consists of an Agilent binary high-performance liquid chromatography (HPLC) pumps and a TSQ Vantage triple quadrupole MS/MS instrument. For each sample, 2 μL samples from the top organic layer of in-plate liquid-liquid extraction were injected onto a Thermo Betabasic C4 column (2.1 mm×20 mm, 5 μm particle size). The samples were then eluted using the following conditions; mobile phase: MeOH/water with 0.1% ammonium format=92/8 (v/v), flow rate: 1 mL/min, temperature: 25 C. Data was acquired in positive mode using a heated electrospray ionization (HESI) interface. The operational parameters for the TSQ Vantage MS/MS instrument were a spray voltage of 3000 V, capillary temperature of 280° C., vaporizer temperature 400° C., shealth gas 60 arbitrary unit, Aux gas 40 arbitrary units, S-lens 113 and collision gas 0.16 Pascals. […] (SRM) chromatograms of triolein (Q1: 902.9>Q3:602.3) and internal standard ([…]) were collected for 40 sec. The peak area was integrated by Xcalibur Quan software. The ratio between the triolein generated in the reaction and spiked in internal standard was used to generate percentage inhibition and IC50 values. Compound percentage inhibition was calculated by the following formula: Inhibition %=1−[(compound response−low control)/(high control−low control)]×100%. Potent compounds were titrated and IC50 were calculated by 4 parameter sigmoidal curve fitting formula.
DGAT2 activity was determined by measuring the amount of enzymatic product triolein (1,2,3-Tri(cis-9-octadecenoyl)glycerol) using the membrane prep mentioned above. The assay was carried out in deep well 384 plates in a final volume of 40 μL at room temperature. The assay mixture contained the following: assay buffer (100 mM Tris.Cl, pH 7.0, 20 mM MgCl2, 5% ethanol), 25 μM of diolein, 10 μM of oleoyl-CoA and 10 ng/μL of DGAT2 membrane.

Chain of Human DGAT2 (Q96PD7 whole entry): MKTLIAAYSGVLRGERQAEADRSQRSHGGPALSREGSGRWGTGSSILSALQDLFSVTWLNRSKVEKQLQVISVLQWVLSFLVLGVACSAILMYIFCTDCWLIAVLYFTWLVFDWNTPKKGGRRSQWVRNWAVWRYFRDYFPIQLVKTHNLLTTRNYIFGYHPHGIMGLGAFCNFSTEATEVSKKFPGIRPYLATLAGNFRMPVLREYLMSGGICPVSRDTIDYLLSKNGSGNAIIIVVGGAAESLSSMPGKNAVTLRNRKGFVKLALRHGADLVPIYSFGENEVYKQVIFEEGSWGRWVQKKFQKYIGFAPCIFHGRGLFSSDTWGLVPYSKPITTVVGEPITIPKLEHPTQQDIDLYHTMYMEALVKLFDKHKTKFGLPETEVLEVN

SMILES	IC50
CC1(NC(=O)c2ccc3c(-c4ccccc4Cl)nn(-c4ncc(F)cn4)c3c2)CCS(=O)(=O)C1 (racemic) [Example 181, 3-(2-chlorophenyl)-1-(5-fluoropyrimidin-2-yl)-N-(3-methyl-1,1-dioxidotetradioxidotetradioxido-tetradioxidotetra-hydrothiophen-3-yl)-1H-indazole-6-carboxamide]	391 nM
CC1(NC(=O)c2ccc3c(-c4ccccc4Cl)nn(-c4nnc(C(F)(F)F)s4)c3c2)CCS(=O)(=O)C1 (racemic) [Example 182, 3-(2-chlorophenyl)-N-(3-methyl-1,1-dioxidotetrahydrothiophen-3-yl)-1-[5-(trifluoromethyl)-1,3,4-thiadiazol-2-yl]-1H-indazole-6-carboxamide]	371 nM
CC1(NC(=O)c2ccc3c(-c4ccccc4Cl)nn(-c4nnc(C(C)(C)C)s4)c3c2)CCS(=O)(=O)C1 (racemic) [Example 183, 1-(5-tert-butyl-1,3,4-thiadiazol-2-yl)-3-(2-chlorophenyl)-N-(3-methyl-1,1-dioxidotetrahydrothiophen-3-yl)-1H-indazole-6-carboxamide]	460 nM
Cn1ccc(-n2nc(-c3ccccc3Cl)c3ccc(C(=O)NC4(C)CCS(=O)(=O)C4)cc32)n1 (racemic) [Example 184, 3-(2-chlorophenyl)-N-(3-methyl-1,1-dioxidotetrahydrothiophen-3-yl)-1-(1-methyl-1H-pyrazol-3-yl)-1H-indazole-6-carboxamide]	201 nM
Cc1ccc(-n2nc(-c3ccccc3Cl)c3ccc(C(=O)NC4(C)CCS(=O)(=O)C4)cc32)nc1 (racemic) [Example 185, 3-(2-chlroophenyl)-N-(3-methyl-1,1-dioxidotetrahydrothiophen-3-yl)-1-(5-methylpyridin-2-yl)-1H-indazole-6-carboxamide]	9.5 nM
COc1cccc(-n2nc(-c3ccccc3Cl)c3ccc(C(=O)NC4(C)CCS(=O)(=O)C4)cc32)n1 (racemic) [Example 186, 3-(2-chlorophenyl)-1-(6-methoxypyridin-2-yl)-N-(3-methyl-1,1-dioxidotetrahydrothiophen-3-yl)-1H-indazole-6-carboxamide]	322 nM
CCOC(=O)c1coc(-n2nc(-c3ccccc3Cl)c3ccc(C(=O)NC4(C)CCS(=O)(=O)C4)cc32)n1 (racemic) [Example 188, ethyl 2-{3-(2-chlorophenyl)-6-[(3-methyl-1,1-dioxidotetrahydrothiophen-3-yl)carbamoyl]-1H-indazol-1-yl}-1,3-oxazole-4-carboxylate]	95 nM
CC1(NC(=O)c2ccc3c(-c4ccccc4Cl)nn(-c4cccnc4)c3c2)CCS(=O)(=O)C1 (racemic) [Example 189, 3-(2-chlorophenyl)-N-(3-methyl-1,1-dioxidotetrahydrothiophen-3-yl)-1-pyridin-3-yl-1H-indazole-6-carboxamide]	409 nM
CC1(NC(=O)c2ccc3c(-c4ccccc4Cl)nn(-c4nnc(C5CC5)s4)c3c2)CCS(=O)(=O)C1 (racemic) [Example 190, 3-(2-chlorophenyl)-1-(5-cyclopropyl-1,3,4-thiadiazol-2-yl)-N-(3-methyl-1,1-dioxidotetrahydrothiophen-3-yl)-1H-indazole-6-carboxamide]	45 nM
CC1(NC(=O)c2ccc3c(-c4cccc(C#N)c4)nn(-c4ccc(F)cc4)c3c2)CCS(=O)(=O)C1 (single isomer, unassigned) [Example 117-B, 3-(3-cyanophenyl)-1-(4-fluorophenyl)-N-(3-methyl-1,1-dioxidotetrahydrothiophen-3-yl)-1H-indazole-6-carboxamide]	6.4 nM
CC1(NC(=O)c2ccc3c(-c4cc(C#N)ccc4Cl)nn(-c4ccc(F)cc4)c3c2)CCS(=O)(=O)C1 (single isomer, unassigned) [Example 119-A, 3-(2-chloro-5-cyanophenyl)-1-(4-fluorophenyl)-N-(3-methyl-1,1-dioxidotetrahydrothiophen-3-yl)-1H-indazole-6-carboxamide]	8.4 nM
CC1(NC(=O)c2ccc3c(-c4cc(C#N)ccc4Cl)nn(-c4ccc(F)cc4)c3c2)CCS(=O)(=O)C1 (single isomer, unassigned) [Example 119-B, 3-(2-chloro-5-cyanophenyl)-1-(4-fluorophenyl)-N-(3-methyl-1,1-dioxidotetrahydrothiophen-3-yl)-1H-indazole-6-carboxamide]	2.5 nM
CC1(NC(=O)c2ccc3c(-c4cc(C(N)=O)ccc4Cl)nn(-c4ccc(F)cc4)c3c2)CCS(=O)(=O)C1 (single isomer, unassigned) [Example 121-A, 3-(5-carbamoyl-2-chlorophenyl)-1-(4-fluorophenyl)-N-(3-methyl-1,1-dioxidotetrahydrothiophen-3-yl)-1H-indazole-6-carboxamide]	132 nM
CC1(NC(=O)c2ccc3c(-c4cc(C(N)=O)ccc4Cl)nn(-c4ccc(F)cc4)c3c2)CCS(=O)(=O)C1 (single isomer, unassigned) [Example 121-B, 3-(5-carbamoyl-2-chlorophenyl)-1-(4-fluorophenyl)-N-(3-methyl-1,1-dioxidotetrahydrothiophen-3-yl)-1H-indazole-6-carboxamide]	61 nM

More lines, now with the values ahead:

IC50	SMILES
644 nM	COC(=O)c1ccc(-n2nc(-c3ccccc3Cl)c3ccc(C(=O)NC4(C)CCS(=O)(=O)C4)cc32)cc1 (racemic) [Example 187, methyl 4-{3-(2-chlorophenyl)-6-[(3-methyl-1,1-dioxidotetrahydrothiophen-3-yl)carbamoyl]-1H-indazol-1-yl}benzoate]
4.5 nM	CC1(NC(=O)c2ccc3c(-c4ccccc4Cl)nn(-c4ccc(F)cc4)c3c2)CCS(=O)(=O)C1 (single isomer, unassigned) [Example 1-A, 3-(2-Chlorophenyl)-1-(4-fluorophenyl)-N-(3-methyl-1,1-dioxidotetrahydrothiophen-3-yl)-1H-indazole-6-carboxamide]
8.3 nM	CC1(NC(=O)c2ccc3c(-c4ccccc4Cl)nn(-c4ccc(F)cc4)c3c2)CCS(=O)(=O)C1 (single isomer, unassigned) [Example 1-B, 3-(2-chlorophenyl)-1-(4-fluorophenyl)-N-(3-methyl-1,1-dioxidotetrahydrothiophen-3-yl)-1H-indazole-6-carboxamide]
12 nM	O=C(NC1CCS(=O)(=O)C1)c1ccc2c(-c3ccccc3Cl)nn(-c3ccc(F)cc3)c2c1 (single isomer, unassigned) [Example 2-A]
303 nM	O=C(NC1CCS(=O)(=O)C1)c1ccc2c(-c3ccccc3Cl)nn(-c3ccc(F)cc3)c2c1 (single isomer, unassigned) [Example 2-B, 3-(2-chlorophenyl)-N-(1,1-dioxidotetrahydrothiophen-3-yl)-1-(4-fluorophenyl)-1H-indazole-6-carboxamide]
668 nM	O=C(NC1CC[S+]([O-])C1)c1ccc2c(-c3ccccc3Cl)nn(-c3ccc(F)cc3)c2c1 (single isomer, unassigned) [Example 58-A, 3-(2-chlorophenyl)-1-(4-fluorophenyl)-N-(1-oxidotetrahydrothiophen-3-yl)-1H-indazole-6-carboxamide]
608 nM	O=C(NC1CC[S+]([O-])C1)c1ccc2c(-c3ccccc3Cl)nn(-c3ccc(F)cc3)c2c1 (single isomer, unassigned) [Example 58-B, 3-(2-chlorophenyl)-1-(4-fluorophenyl)-N-(1-oxidotetrahydrothiophen-3-yl)-1H-indazole-6-carboxamide]
4.2 nM	N#Cc1ccc(Cl)c(-c2nn(-c3ccc(F)cc3)c3cc(C(=O)NC4CCS(=O)(=O)C4)ccc23)c1 (single isomer, unassigned) [Example 120-A, 3-(2-chloro-5-cyanophenyl)-N-(1,1-dioxidotetrahydrothiophen-3-yl)-1-(4-fluorophenyl)-1H-indazole-6-carboxamide]
96 nM	NC(=O)c1ccc(Cl)c(-c2nn(-c3ccc(F)cc3)c3cc(C(=O)NC4CCS(=O)(=O)C4)ccc23)c1 (single isomer, unassigned) [Example 122-A, 3-(5-carbamoyl-2-chlorophenyl)-N-(1,1-dioxidotetrahydrothiophen-3-yl)-1-(4-fluorophenyl)-1H-indazole-6-carboxamide]
